Measurements from PMC9805530 (European journal of medicinal chemistry, 2022).

Assays:
Sirt1 [1] = target: T1, Sirt1 (Homo sapiens, UniProt Q96EB6); conditions: cited from earlier work
T1 sequence (Q96EB6 1-747): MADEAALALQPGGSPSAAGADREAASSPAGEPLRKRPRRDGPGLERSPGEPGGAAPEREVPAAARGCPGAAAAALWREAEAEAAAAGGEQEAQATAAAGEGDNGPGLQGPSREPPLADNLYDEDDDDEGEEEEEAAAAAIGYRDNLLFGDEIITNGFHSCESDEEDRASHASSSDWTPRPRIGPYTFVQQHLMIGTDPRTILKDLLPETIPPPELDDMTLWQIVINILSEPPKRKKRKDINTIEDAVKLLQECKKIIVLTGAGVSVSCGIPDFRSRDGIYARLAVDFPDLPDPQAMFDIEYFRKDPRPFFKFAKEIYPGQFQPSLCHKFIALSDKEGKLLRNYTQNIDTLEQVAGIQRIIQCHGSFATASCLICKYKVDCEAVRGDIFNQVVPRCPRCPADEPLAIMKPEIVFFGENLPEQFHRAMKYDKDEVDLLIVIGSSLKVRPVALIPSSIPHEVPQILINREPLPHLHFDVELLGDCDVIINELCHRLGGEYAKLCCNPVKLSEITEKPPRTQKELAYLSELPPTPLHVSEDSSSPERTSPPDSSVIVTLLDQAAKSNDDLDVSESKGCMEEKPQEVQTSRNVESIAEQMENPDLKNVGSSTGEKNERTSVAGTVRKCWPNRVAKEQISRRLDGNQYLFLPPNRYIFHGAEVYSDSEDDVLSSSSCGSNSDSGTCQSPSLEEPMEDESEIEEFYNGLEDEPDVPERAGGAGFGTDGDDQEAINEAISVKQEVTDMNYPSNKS

Sirt2 [2] = target: T2, Sirt2 (Homo sapiens, UniProt Q8IXJ6); conditions: cited from earlier work
T2 sequence (Q8IXJ6 1-389): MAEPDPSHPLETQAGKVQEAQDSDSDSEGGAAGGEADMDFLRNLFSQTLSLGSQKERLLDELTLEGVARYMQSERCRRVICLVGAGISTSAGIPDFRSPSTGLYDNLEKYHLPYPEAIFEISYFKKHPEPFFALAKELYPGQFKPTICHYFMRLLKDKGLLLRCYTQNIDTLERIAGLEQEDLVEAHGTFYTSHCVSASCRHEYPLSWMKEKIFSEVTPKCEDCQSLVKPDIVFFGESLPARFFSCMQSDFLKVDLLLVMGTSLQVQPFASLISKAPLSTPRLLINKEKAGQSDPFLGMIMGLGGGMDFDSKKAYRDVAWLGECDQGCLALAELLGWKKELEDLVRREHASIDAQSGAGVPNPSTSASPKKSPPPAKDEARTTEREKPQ

Sirt3 [3] = target: T3, Sirt3 (Homo sapiens, UniProt Q9NTG7); conditions: cited from earlier work
T3 sequence (Q9NTG7 1-399): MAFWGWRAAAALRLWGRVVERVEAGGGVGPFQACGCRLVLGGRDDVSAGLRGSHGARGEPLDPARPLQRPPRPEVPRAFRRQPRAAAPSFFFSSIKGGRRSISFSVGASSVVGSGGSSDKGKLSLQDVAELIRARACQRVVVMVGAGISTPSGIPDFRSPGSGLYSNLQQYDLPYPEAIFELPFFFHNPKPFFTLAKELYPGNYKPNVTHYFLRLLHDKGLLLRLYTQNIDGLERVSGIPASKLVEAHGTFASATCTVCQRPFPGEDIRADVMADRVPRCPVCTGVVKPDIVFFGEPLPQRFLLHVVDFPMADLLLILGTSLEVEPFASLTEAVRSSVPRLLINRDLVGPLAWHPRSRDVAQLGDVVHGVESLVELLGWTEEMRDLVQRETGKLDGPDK

BV2 cells = test: LPS-induced inflammatory gene mRNA expression; conditions: 30 μM pretreatment 30 minutes, 100 ng/mL LPS 6 hours
Sirt5 = target: T4, Sirt5 (Homo sapiens, UniProt Q9NXA8); test: Fluorogenic Sirt5 Assay Kit; type: biochemical; conditions: 100 μM compounds, 37 °C 30 min
T4 sequence (Q9NXA8 37-310): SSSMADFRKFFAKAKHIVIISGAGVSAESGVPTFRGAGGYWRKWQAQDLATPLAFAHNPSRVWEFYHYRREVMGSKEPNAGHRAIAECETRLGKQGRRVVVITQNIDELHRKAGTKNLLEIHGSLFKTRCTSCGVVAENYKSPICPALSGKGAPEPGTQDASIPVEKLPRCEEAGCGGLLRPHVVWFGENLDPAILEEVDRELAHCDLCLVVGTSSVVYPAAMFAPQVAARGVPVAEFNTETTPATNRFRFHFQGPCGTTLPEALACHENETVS

Sirt6 [4] = target: T5, Sirt6 (Homo sapiens, UniProt Q8N6T7); type: biochemical; conditions: 100 μM, 30 °C, 60 minutes
T5 sequence (Q8N6T7 whole entry): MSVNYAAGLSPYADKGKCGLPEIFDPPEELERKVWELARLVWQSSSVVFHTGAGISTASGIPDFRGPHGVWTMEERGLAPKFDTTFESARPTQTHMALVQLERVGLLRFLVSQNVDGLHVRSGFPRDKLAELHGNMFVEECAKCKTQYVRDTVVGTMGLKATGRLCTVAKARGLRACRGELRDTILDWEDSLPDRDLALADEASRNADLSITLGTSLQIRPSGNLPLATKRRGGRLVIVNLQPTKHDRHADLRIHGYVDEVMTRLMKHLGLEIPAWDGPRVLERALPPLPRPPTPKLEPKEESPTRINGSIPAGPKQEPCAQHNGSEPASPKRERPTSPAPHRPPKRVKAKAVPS

Sirt1 [5] = target: T1, Sirt1; test: Sirt1 deacetylation Activity Assay Kit; conditions: time course, Fig. 3
Sirt2 [6] = target: T2, Sirt2; test: Sirt2 deacetylation Activity Assay Kit; conditions: time course, Fig. 3
Sirt3 [7] = target: T3, Sirt3; test: Sirt3 deacetylation Activity Assay Kit; conditions: time course, Fig. 3
Sirt6 [8] = target: T5, Sirt6; test: Sirt6-dependent peptide deacetylation, Fluor de Lys; conditions: Fig. 3A

SMILES: c1cncc(C2Nc3ccccc3-n3cccc32)c1 (stereo not drawn) [UBCS039, reference compound]
- effect on basal Sirt1 deacetylation activity (Sirt1 [1]): no obvious effects
- effect on basal Sirt2 deacetylation activity (Sirt2 [2]): no obvious effects
- effect on basal Sirt3 deacetylation activity (Sirt3 [3]): no obvious effects
- LPS-induced expression of IL-1β (BV2 cells): strongly inhibited
- LPS-induced expression of IL-6 (BV2 cells): strongly inhibited
- LPS-induced expression of MCP-1 (BV2 cells): strongly inhibited
- LPS-induced expression of TNFα (BV2 cells): strongly inhibited

SMILES: CN(C)CCN1CCN(c2ncccc2C2Nc3ccccc3-n3cccc32)CC1 (stereo not drawn) [Compound 38, 2-(4-(3-(4,5-Dihydropyrrolo[1,2-a]quinoxalin-4-yl)pyridin-2-yl)piperazin-1-yl)-N,N-dimethylethan-1-amine]
- effect on Sirt5 desuccinylation activity (Sirt5): no significant effects
- acetylation of H3K9 in the nucleosome test (Sirt6 [4]): significantly decreased
- effect on Sirt1 deacetylation activity (Sirt1 [5]): no significant effects
- effect on Sirt2 deacetylation activity (Sirt2 [6]): no significant effects
- effect on Sirt3 deacetylation activity (Sirt3 [7]): no significant effects
- ICAM-1 induction (BV2 cells): slight inhibition
- LPS-induced expression of IL-1β (BV2 cells): strongly inhibited
- LPS-induced expression of IL-6 (BV2 cells): strongly inhibited
- LPS-induced expression of MCP-1 (BV2 cells): strongly inhibited
- LPS-induced expression of TNFα (BV2 cells): strongly inhibited
- effect on Sirt6 activity (time course) (Sirt6 [8]): specifically promoted
